Source: article PMC3401313 (Bioorganic & medicinal chemistry letters, 2012)

Experiments:
[1] = molecular target: recombinant His-tagged HDAC2 (Homo sapiens, UniProt Q92769); format: binding; conditions: probe 25 µM, HDAC2 1.25 µM, Trichostatin A 125 µM (5-fold molar excess), 24 h preincubation, 254 nm UV
[2] = molecular target: recombinant human HDAC3 (Homo sapiens, UniProt O15379); assay: HDAC3 fluorogenic inhibition assay; conditions: read-out: HDAC3 %Inhibition(10µM)
recombinant human HDAC3, sequence (O15379 whole entry): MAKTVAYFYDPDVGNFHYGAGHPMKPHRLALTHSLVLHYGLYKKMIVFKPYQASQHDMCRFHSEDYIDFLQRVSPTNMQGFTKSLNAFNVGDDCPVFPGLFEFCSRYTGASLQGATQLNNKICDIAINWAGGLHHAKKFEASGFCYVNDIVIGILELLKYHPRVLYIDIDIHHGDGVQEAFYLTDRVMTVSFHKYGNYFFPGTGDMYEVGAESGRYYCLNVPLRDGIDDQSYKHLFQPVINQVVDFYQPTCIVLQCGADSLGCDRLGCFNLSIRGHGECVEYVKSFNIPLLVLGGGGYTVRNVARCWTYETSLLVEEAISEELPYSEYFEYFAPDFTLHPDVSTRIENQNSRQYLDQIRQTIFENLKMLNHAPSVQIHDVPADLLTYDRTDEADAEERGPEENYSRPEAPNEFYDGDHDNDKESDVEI
recombinant human HDAC3, sequence (Q9Y618 395-489 partner limits assumed): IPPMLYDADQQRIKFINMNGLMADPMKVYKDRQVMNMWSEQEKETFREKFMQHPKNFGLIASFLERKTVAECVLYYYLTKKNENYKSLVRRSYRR

recombinant His-tagged HDAC2, sequence (Q92769 whole entry): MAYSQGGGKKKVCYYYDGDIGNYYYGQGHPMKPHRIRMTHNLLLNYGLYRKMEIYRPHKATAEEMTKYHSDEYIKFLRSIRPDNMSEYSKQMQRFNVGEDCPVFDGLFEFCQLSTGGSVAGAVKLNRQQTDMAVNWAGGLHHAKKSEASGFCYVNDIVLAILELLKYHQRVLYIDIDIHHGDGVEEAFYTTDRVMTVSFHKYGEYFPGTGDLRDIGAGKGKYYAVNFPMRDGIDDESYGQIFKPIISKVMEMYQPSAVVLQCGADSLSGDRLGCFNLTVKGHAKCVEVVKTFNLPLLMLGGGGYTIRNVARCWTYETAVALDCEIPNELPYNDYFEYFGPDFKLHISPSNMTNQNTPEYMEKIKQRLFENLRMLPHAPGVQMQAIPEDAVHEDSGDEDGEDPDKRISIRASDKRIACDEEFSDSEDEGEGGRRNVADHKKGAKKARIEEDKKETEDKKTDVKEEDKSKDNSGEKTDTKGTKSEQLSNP

Row | SMILES | biotinylation of HDAC2 in competition with Trichostatin A [1] | inhibition at 10 µM [2] [%]
1 | [N-]=[N+]=NCCC(=O)Nc1ccc(C(=O)Nc2cc(N=[N+]=[N-])ccc2N)cc1 [1g] | slightly less pronounced | –
2 | O=C(CCCCCCC(=O)Nc1ccccc1)NO [SAHA, suberoyl anilide hydroxamic acid] | – | 100
